Our source for the IC50 values is patent US11040031B2, “Pyrazole derivatives as MALT1 inhibitors” (Janssen Pharmaceutica NV, priority 2018, dated 2021).

Test [1] concerns the target T1, full-length MALT1 protein (Strep-MALT1(1-824)-His) (Homo sapiens, UniProt Q9UDY8).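 Further: fluorogenic LRSR-AMC substrate cleavage by MALT1, 50 min compound preincubation then 4 h reaction at RT, 11-point dilution from 30 µM, scaled between enzyme-free and untreated enzyme controls.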
T1 sequence (Q9UDY8 1-824): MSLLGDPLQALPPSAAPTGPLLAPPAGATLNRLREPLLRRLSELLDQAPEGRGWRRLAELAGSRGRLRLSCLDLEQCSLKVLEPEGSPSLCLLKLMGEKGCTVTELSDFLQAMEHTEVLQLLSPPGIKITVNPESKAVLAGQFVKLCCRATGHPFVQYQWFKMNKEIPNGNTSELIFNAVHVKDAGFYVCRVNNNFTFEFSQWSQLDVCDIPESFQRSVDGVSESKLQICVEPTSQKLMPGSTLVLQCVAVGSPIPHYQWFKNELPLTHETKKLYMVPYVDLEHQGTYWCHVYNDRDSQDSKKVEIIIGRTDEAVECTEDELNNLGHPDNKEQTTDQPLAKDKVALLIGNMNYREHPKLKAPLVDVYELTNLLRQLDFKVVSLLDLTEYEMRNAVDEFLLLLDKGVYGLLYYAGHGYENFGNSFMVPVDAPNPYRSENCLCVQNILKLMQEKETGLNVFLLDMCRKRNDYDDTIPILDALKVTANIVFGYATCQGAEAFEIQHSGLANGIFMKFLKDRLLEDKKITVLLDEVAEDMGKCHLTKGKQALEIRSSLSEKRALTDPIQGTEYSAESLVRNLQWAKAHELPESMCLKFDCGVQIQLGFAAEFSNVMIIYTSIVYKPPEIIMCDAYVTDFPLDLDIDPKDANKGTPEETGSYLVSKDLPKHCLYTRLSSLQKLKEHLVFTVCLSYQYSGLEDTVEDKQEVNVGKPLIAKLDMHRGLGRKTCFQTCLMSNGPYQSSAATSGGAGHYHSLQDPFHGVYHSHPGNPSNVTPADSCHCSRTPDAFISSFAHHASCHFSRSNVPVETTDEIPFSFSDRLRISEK
The test can be described thus: biochemical.

The subject of test [2] is Secretion of IL10 by OCI-LY3 ABC-DLBCL cells. The test can be described thus: Human IL10 Mesoscale assay (OCI-LY3). Format: cell-based. The following applies: read-out: Human IL10 Mesoscale assay (OCI-LY3). The procedure: (§1) NFKB signaling regulates the secretion of multiple cytokines, including IL6 and IL10. Secretion of the cytokines IL6 and IL10 by TMD8 or OCI-LY3 ABC-DLBCL cells was measured using a mesoscale assay.
(§2) Cell passage number should not exceed 30. Cells should be kept between 0.5-2.5 million cells per mL during culturing and cells should be supplemented every 2-3 days with fresh 50 µM beta-mercaptoenthanol. No beta-mercaptoethanol was used during the mesoscale assay.
(§3) DMSO control wells were used to determine the maximum signal (High Control (HC)). […] Compounds and cells were incubated for 24 h at 37° C. and 5% CO2 (assay volume is 150 μL). After 24 h of incubation 50 μL of the supernatant was transferred to a MSD plate (V-Plex Proinflammation Panel 1 (human) kit, Mesoscale (MSD)) and incubated for 2 h with vigorous shaking (600 rpm) at room temperature. Following incubation, plates were washed 3× with PBS+0.05% Tween-20 and 25 μL detection antibody solution (IL6 & IL10 antibodies in diluent 3 (MSD)) was added per well followed by 2 h of incubation with vigorous shaking (600 rpm) at room temperature. After 3× washes with PBS+0.05% Tween-20, plates were incubated with 150 μL 2× Read Buffer T and read on SECTOR imager.

The test system of test [3] is Secretion of IL6 by OCI-LY3 ABC-DLBCL cells. The test can be described thus: Human IL6 Mesoscale assay (OCI-LY3). Format: cell-based. Particulars: read-out: Human IL6 Mesoscale assay (OCI-LY3). The procedure: as §1, §2, §3
[4] abbreviates: OCI-LY3 cells, 24 h incubation, supernatant, MSD V-Plex.

Molecules are shown by their SMILES. Like-named read-outs stand apart in the source and are kept apart here.

As to `Cc1cnc(N)cc1-n1ncc(C(=O)Nc2cnc(-n3nccn3)c(C#N)c2)c1C(F)(F)F` [Cpd 142, 1-(2-amino-5-methylpyridin-4-yl)-N-(5-cyano-6-(2H-1,2,3-triazol-2-yl)pyridin-3-yl)-5-(trifluoromethyl)-1H-pyrazole-4-carboxamide], the IC50 is 22 nM in test [1], 355 nM in test [2] (setting [4]) and 676 nM in test [3] (setting [4]).
As for `Cc1c(-n2ncc(C(=O)Nc3cnc(-n4nccn4)c(C#N)c3)c2C(F)(F)F)ccnc1N` [Cpd 143, 1-(2-amino-3-methylpyridin-4-yl)-N-(5-cyano-6-(2H-1,2,3-triazol-2-yl)pyridin-3-yl)-5-(trifluoromethyl)-1H-pyrazole-4-carboxamide], the IC50 in test [1] was 110 nM; in test [2] (OCI-Ly3, 24 h) it was 617 nM; in test [3] (OCI-Ly3, 24 h), 1050 nM.
The like results for `N#Cc1cc(NC(=O)c2cnn(-c3ccc(Cl)c(N)n3)c2C(F)(F)F)cnc1-n1nccn1` [Cpd 144, 1-(6-amino-5-chloropyridin-2-yl)-N-(5-cyano-6-(2H-1,2,3-triazol-2-yl)pyridin-3-yl)-5-(trifluoromethyl)-1H-pyrazole-4-carboxamide] were, in that order, 35 nM, 26 nM and 46 nM.
The like results for `Cc1cc(F)c(N)nc1-n1ncc(C(=O)Nc2cnc(-n3nccn3)c(C#N)c2)c1C(F)(F)F` [Cpd 145, 1-(6-amino-5-fluoro-3-methylpyridin-2-yl)-N-(5-cyano-6-(2H-1,2,3-triazol-2-yl)pyridin-3-yl)-5-(trifluoromethyl)-1H-pyrazole-4-carboxamide] were, in that order, 32 nM, 18 nM and 17 nM.
In the same order, the values of `Cc1cc(F)c(N)nc1-n1ncc(C(=O)Nc2cnc(-n3nccn3)c(Cl)c2)c1C(F)(F)F` [Cpd 146, 1-(6-amino-5-fluoro-3-methylpyridin-2-yl)-N-(5-chloro-6-(2H-1,2,3-triazol-2-yl)pyridin-3-yl)-5-(trifluoromethyl)-1H-pyrazole-4-carboxamide] are 107 nM, 158 nM and 195 nM.
`Nc1nc(-n2ncc(C(=O)Nc3cnc(-n4nccn4)c(C(F)(F)F)c3)c2C(F)(F)F)ccc1F` [Cpd 147, N-(6-(2H-1,2,3-triazol-2-yl)-5-(trifluoromethyl)pyridin-3-yl)-1-(6-amino-5-fluoropyridin-2-yl)-5-(trifluoromethyl)-1H-pyrazole-4-carboxamide]: the IC50 in test [1] worked out at 69 nM; in test [2] (OCI-Ly3, 24 h), 40 nM; in test [3] (OCI-Ly3, 24 h), 52 nM.
With `N#Cc1cc(NC(=O)c2cnn(-c3cc(N)ncc3Cl)c2C(F)(F)F)cnc1-n1nccn1` [Cpd 148, 1-(2-amino-5-chloropyridin-4-yl)-N-(5-cyano-6-(2H-1,2,3-triazol-2-yl)pyridin-3-yl)-5-(trifluoromethyl)-1H-pyrazole-4-carboxamide], the IC50 came to 39 nM in test [1]; 263 nM in test [2] (OCI-Ly3, 24 h); 398 nM in test [3] (OCI-Ly3, 24 h).
In the case of `Nc1cc(-n2ncc(C(=O)Nc3cnc(-n4nccn4)c(Cl)c3)c2C(F)(F)F)c(Cl)cn1` [Cpd 149, 1-(2-amino-5-chloropyridin-4-yl)-N-(5-chloro-6-(2H-1,2,3-triazol-2-yl)pyridin-3-yl)-5-(trifluoromethyl)-1H-pyrazole-4-carboxamide], the IC50 stood at 85 nM in test [1], 155 nM in test [2] (setting [4]) and 166 nM in test [3] (setting [4]).
In the same order, the values of `CNc1nc(-n2ncc(C(=O)Nc3cnc(-n4nccn4)c(C#N)c3)c2C(F)(F)F)ccc1F` [Cpd 150, N-(5-cyano-6-(2H-1,2,3-triazol-2-yl)pyridin-3-yl)-1-(5-fluoro-6-(methylamino)pyridin-2-yl)-5-(trifluoromethyl)-1H-pyrazole-4-carboxamide] are 100 nM, 204 nM and 269 nM.
On to `Cc1cnccc1-n1ncc(C(=O)Nc2cnc(-n3nccn3)c(Cl)c2)c1C(F)(F)F` [Cpd 158, N-(5-chloro-6-(2H-1,2,3-triazol-2-yl)pyridin-3-yl)-1-(3-methylpyridin-4-yl)-5-(trifluoromethyl)-1H-pyrazole-4-carboxamide], for which the IC50 stood at 209 nM in test [1]; 302 nM in test [2] (OCI-Ly3, 24 h); 275 nM in test [3] (OCI-Ly3, 24 h).
Regarding `N#Cc1cc(NC(=O)c2cnn(-c3nc(Cl)ccc3Cl)c2C(F)(F)F)cnc1-n1nccn1` [Cpd 162, N-(5-cyano-6-(2H-1,2,3-triazol-2-yl)pyridin-3-yl)-1-(3,6-dichloropyridin-2-yl)-5-(trifluoromethyl)-1H-pyrazole-4-carboxamide], the values for the IC50 in test [1], in test [2] (setting [4]) and in test [3] (setting [4]) were 302 nM, 182 nM and 251 nM, respectively.
The like results for `Cc1cc(Cl)ccc1-n1ncc(C(=O)Nc2cnc(-n3nccn3)c(C#N)c2)c1C(F)(F)F` [Cpd 166, 1-(4-chloro-2-methylphenyl)-N-(5-cyano-6-(2H-1,2,3-triazol-2-yl)pyridin-3-yl)-5-(trifluoromethyl)-1H-pyrazole-4-carboxamide] were, in that order, 50 nM, 78 nM and 66 nM.
In the same order, the values of `Cc1c(F)cccc1-n1ncc(C(=O)Nc2cnc(-n3nccn3)c(C#N)c2)c1C(F)(F)F` [Cpd 167, N-(5-cyano-6-(2H-1,2,3-triazol-2-yl)pyridin-3-yl)-1-(3-fluoro-2-methylphenyl)-5-(trifluoromethyl)-1H-pyrazole-4-carboxamide] are 69 nM, 41 nM and 54 nM.
In the case of `Cc1c(-n2ncc(C(=O)Nc3cnc(-n4nccn4)c(C#N)c3)c2C(F)(F)F)ccc(F)c1F` [Cpd 168, N-(5-cyano-6-(2H-1,2,3-triazol-2-yl)pyridin-3-yl)-1-(3,4-difluoro-2-methylphenyl)-5-(trifluoromethyl)-1H-pyrazole-4-carboxamide], the IC50 in test [1] is 74 nM; in test [2] (setting [4]) it was 46 nM; in test [3] (setting [4]) it was 78 nM.
In the same order, the values of `N#Cc1ccc(-n2ncc(C(=O)Nc3cnc(-n4nccn4)c(C#N)c3)c2C(F)(F)F)cc1` [Cpd 169, N-(5-cyano-6-(2H-1,2,3-triazol-2-yl)pyridin-3-yl)-1-(4-cyanophenyl)-5-(trifluoromethyl)-1H-pyrazole-4-carboxamide] are 91 nM, 76 nM and 105 nM.
In the same order, the values of `Cc1cc(F)ccc1-n1ncc(C(=O)Nc2cc(C#N)c(-n3nccn3)nc2C)c1C(F)(F)F` [Cpd 170, N-(5-cyano-2-methyl-6-(2H-1,2,3-triazol-2-yl)pyridin-3-yl)-1-(4-fluoro-2-methylphenyl)-5-(trifluoromethyl)-1H-pyrazole-4-carboxamide] are 102 nM, 380 nM and 417 nM.
The like results for `Cc1c(F)cccc1-n1ncc(C(=O)Nc2cnc(-n3nccn3)c(Cl)c2)c1C(F)(F)F` [Cpd 171, N-(5-chloro-6-(2H-1,2,3-triazol-2-yl)pyridin-3-yl)-1-(3-fluoro-2-methylphenyl)-5-(trifluoromethyl)-1H-pyrazole-4-carboxamide] were, in that order, 145 nM, 76 nM and 98 nM.
For `Cc1cc(F)ccc1-n1ncc(C(=O)Nc2cc(Cl)c(-n3nccn3)nc2C)c1C(F)(F)F` [Cpd 172, N-(5-chloro-2-methyl-6-(2H-1,2,3-triazol-2-yl)pyridin-3-yl)-1-(4-fluoro-2-methylphenyl)-5-(trifluoromethyl)-1H-pyrazole-4-carboxamide], the figures for the IC50 in test [1], in test [2] (setting [4]) and in test [3] (setting [4]) were 151 nM, 178 nM and 200 nM, respectively.
